# Results as given in patent publication US8962637B2, “Bicyclic compounds and their uses as dual c-SRC/JAK inhibitors” (Debiopharm S.A., priority 2010, dated 2015).
# Key:
# c-Src = c-Src (Homo sapiens (Human), UniProt P12931); test: TR-FRET c-Src kinase assay; type: biochemical; settings: ATP 50 μM; for inhibition at 0.1 µM: read-out: c-SRC % inhibition at 100 nM, 100 nM; for inhibition at 1 µM: read-out: c-SRC % inhibition at 1 μM
# Experimental: Compounds were screened in the TR-FRET assay for JAK2 and c-Src kinase inhibition. Ultra light poly GT (Perkin Elmer) was used as the substrate for JAK2 and c-Src with the ATP concentration of 10 μM and 50 μM, respectively. […] The dose-response curve fitting was done using GraphPad Prism software.
# A549 cells = test: Cell viability assay (XTT assay), A549; type: cell-based; settings: Homo sapiens, 72 hrs
# A431 cancer cell line = test: Inhibition of cell growth in A431; type: cell-based; settings: Homo sapiens, A-431
# pStat3 = test: In-Cell-Western blot assay for pStat3 (ICW) in A431 cells; type: cell-based; settings: Homo sapiens, A-431, 2 hrs, read-out: pSTAT3 inhibition
# How it was run: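 Serum-starved (overnight) A431 cells treated with compound for 2 hrs, then fixed, permeabilized and probed with phospho-Stat3 antibody plus europium-labelled secondary. Europium signal normalized to Hoechst for cell number; IC50 calculated from normalized values.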
# B16F10 tumor cells = test: B16F10 metastasis model; type: in vivo, C57B16 mice; settings: for Metastasis Inhibition: B16F10 model; for % metastasis inhib.: Efficacy - B16F10 at 100 MPK
# Experimental: IV injection of 0.1×10^6 B16F10 tumor cells in the tail vain of 60 male C57B16 mice. Randomization of mice one day after tumor cell injection into 4 groups of 15 mice. Out of 15, 6 mice were sacrificed on 14th day for counting metastatic foci on lungs. Rest 9 mice were dosed continuously till morbidity/mortality for recording survival.
# (§1) Formulation: 20% HPC, 2% ethanol solution in PBS for the compound No. 45
# Plasma collected for drug concentration estimation and whole blood was collected to isolate PBMCs to determine pStat3 inhibition by flow cytometry as PD readout.
# A431 tumor cells = test: A431 xenograft model; type: in vivo, athymic nude mice; settings: for TGI: Efficacy - A431 at 100 MPK
# Experimental: SC injection of 5×10^6 A431 tumor cells with Matrigel® on the left flank of 24 female athymic nude mice. Randomization of mice 14 days after tumor cell injection into 3 groups of 8 mice each with a mean tumor volume of 90±1 mm3.
# as §1
# • Normal saline for Gefitinib® Dosing route: Oral for the compound No. 45 and Gefitinib® Dose Volume: 10 mL/Kg body weight Dosing schedule: Once daily for 14 consecutive days (Q1Dx14) PK-PD experiment in A431 model: Tumors were allowed to grow to 250 mm^3 size. Compounds were dosed once and PBMCs and tumors were collected at Tmax for pStat3 estimation. Plasma was also collected to estimate drug concentration estimation. Efficacy experiment in A431 model: Dosage: • Group1. Vehicle control • Group2. Compound No. 45—150 MPK • Group3. […] Plasma collected for drug concentration estimation and whole blood was collected to isolate PBMCs to determine pStat3 inhibition by flow cytometry as PD readout. Tumors were snap frozen in liquid nitrogen and stored at −80° C. to estimate pStat3 by flow cytometry as PD readout Determination of Plasma Drug Concentration: […]
# Volume distribution = settings: in vivo
# From the text: Table 8 provides some volume distribution values of the compounds of the present invention.
# [1] = mouse, in vivo
# [2] = MTD / tolerance in athymic mice; settings: once-daily 14 days treatment in athymic mice
# c-Src, sequence (P12931 whole entry, looked up): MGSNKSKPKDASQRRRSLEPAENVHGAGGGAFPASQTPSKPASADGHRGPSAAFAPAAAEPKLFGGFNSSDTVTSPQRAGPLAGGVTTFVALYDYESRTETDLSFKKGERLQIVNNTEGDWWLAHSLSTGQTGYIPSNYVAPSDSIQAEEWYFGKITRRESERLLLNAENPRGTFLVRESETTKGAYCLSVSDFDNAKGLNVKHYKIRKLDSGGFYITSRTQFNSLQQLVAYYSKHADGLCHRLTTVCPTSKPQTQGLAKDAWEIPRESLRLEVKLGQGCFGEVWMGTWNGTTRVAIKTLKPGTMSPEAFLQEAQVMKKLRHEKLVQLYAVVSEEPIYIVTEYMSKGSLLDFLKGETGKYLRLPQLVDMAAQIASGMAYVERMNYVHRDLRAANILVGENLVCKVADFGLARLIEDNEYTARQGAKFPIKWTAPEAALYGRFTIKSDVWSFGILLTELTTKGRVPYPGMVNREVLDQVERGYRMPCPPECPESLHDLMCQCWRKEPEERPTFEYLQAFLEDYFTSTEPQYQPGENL
Structure (SMILES),IC50 (c-Src) [nM],EC50 (A549 cells) [nM],EC50 (A431 cancer cell line) [nM],IC50 (pStat3) [nM],anti-tumor activity (B16F10 tumor cells; B16F10 metastasis model),"reduction in metastatic counts on lungs (B16F10 tumor cells; B16F10 metastasis model, 100 MPK, Q1Dx14) [%]",Metastasis Inhibition (B16F10 tumor cells; 30 MPK) [%],Metastasis Inhibition (B16F10 tumor cells; 100 MPK) [%],% metastasis inhib. (B16F10 tumor cells) [%],"% TGI (A431 tumor cells; A431 Xenograft model, 100 MPK) [%]",TGI (A431 tumor cells) [%],Vd (Volume distribution) [L/kg],"good tolerance ([1]; athymic, 14 days)",MTD [1] [MPK],toxicity effects on major organs [2],inhibition at 0.1 µM (c-Src) [%],inhibition at 1 µM (c-Src) [%]
"Cc1ccc(NC(=O)c2cccc(C(F)(F)F)c2)cc1N1CCc2nc(Nc3ccc(N4CCN(C)CC4)cc3)ncc2C1=O [Compound 45, N-(4-Methyl-3-{2-[4-(4-methyl-piperazin-1-yl)-phenylamino]-5-oxo-7,8-dihydro-5H-pyrido[4,3-d]pyrimidin-6-yl}-phenyl)-3-trifluoromethyl-benzamide]",10,1070,1400,220,good anti-tumor activity,75,73,75,75,52.55,48,5.89,up to 250 MPK,250,does not cause pronounced toxicity effects on major organs,–,–
"Cc1ccc(NC(=O)c2cccc(C(F)(F)F)c2)cc1N1CCc2nc(Nc3ccc(C(=O)NC4CC4)nc3)ncc2C1 [Compound 117, 5-{6-[2-Methyl-5-(3-trifluoromethyl-benzoylamino)-phenyl]-5,6,7,8-tetrahydro-pyrido[4,3-d]pyrimidin-2-ylamino}-pyridine-2-carboxylic acid cyclopropylamide]",–,25,330,340,–,–,–,–,26,–,54,–,–,100,–,80,96
"CNC(=O)c1ccc(Nc2ncc3c(n2)CCN(c2cc(NC(=O)c4cc(C(F)(F)F)ccn4)ccc2Cl)C3)cc1 [Compound 179, 4-Trifluoromethyl-pyridine-2-carboxylic acid {4-chloro-3-[2-(4-methylcarbamoyl-phenylamino)-7,8-dihydro-5H-pyrido[4,3-d]pyrimidin-6-yl]-phenyl}-amide]",15,–,–,280,–,–,–,–,47,–,67,–,–,30,–,79,93
